Results from paper PMC6112376, “Comprehensive Analyses and Prioritization of Tox21 10K Chemicals Affecting Mitochondrial Function by in-Depth Mechanistic Studies” (Environmental Health Perspectives, 2018).
Like-named read-outs stand apart in the source and are kept apart here.

Tests used:
HepG2 cells [1] = conditions: cited from earlier work
rat primary hepatocytes = assay: MMP assay in rat primary hepatocytes; conditions: for MMP assays IC50 (µM) Rat Hepatocytes / MMP assays efficacy (%) Rat Hepatocytes: mean ± SD of three experiments; for IC50: Rattus norvegicus, Hepatocyte, read-out: MMP assays IC50 (µM) Rat Hepatocytes
HepG2 cells [2] = assay: cells; conditions: Homo sapiens; for IC50: HepG2, read-out: MMP assays IC50 (µM) HepG2; for Emax: HepG2, read-out: MMP assays efficacy (%) HepG2
[3] = read-out: MMP assays IC50 (µM) qHTS-HepG2
[4] = read-out: MMP assays IC50 (µM), qHTS-HepG2

SMILES | MMP assays efficacy (%) qHTS-HepG2 (HepG2 cells [1]) [%] | IC50 (HepG2 cells [1]; [3]) [µM] | MMP assays IC50 (µM) Rat Hepatocytes (rat primary hepatocytes) | MMP assays efficacy (%) Rat Hepatocytes (rat primary hepatocytes) | IC50 (HepG2 cells [2]) [µM] | Emax (HepG2 cells [2]) [%] | IC50 (rat primary hepatocytes) [µM] | IC50 (HepG2 cells [1]; [4]) [µM]
Nc1ccc2c(O)cc(S(=O)(=O)O)cc2c1 | -55±5 | 27.3 ± 3.73 | inactive | inactive | 39.8 | 40 | – | –
COc1ccc(C(=O)c2ccc(OC)cc2O)c(O)c1 | -95±11 | 7.75 ± 1.8 | – | -58±4% | 12.6 | 109 | 29.8 ± 13.8 | –
CC(C)(C)C1=CC(=O)C=C(C(C)(C)C)C1=O | -73±22 | 18.6 ± 12.4 | inactive | inactive | 39.8 | 80 | – | –
C#C[C@]1(O)CC[C@H]2[C@@H]3CCC4=CC(=NO)CC[C@@H]4[C@H]3CC[C@@]21CC (mixture of isomers) [Norelgestromin] | -122±2 | – | – | -55±21% | 19.4 | 121 | 13.4 ± 12.3 | 13.5 ± 6.64
O=C1c2ccccc2C(=O)c2c(O)ccc(O)c21 [1,4-Dihydroxyanthracene-9,10-dione] | -103±19 | 5.24 ± 3.43 | – | -25±3% | 8.91 | 41 | 4.81 ± 8.07 | –
O=C1OC(=O)c2cccc3cccc1c23 [1H,3H-Naphtho(1,8-cd)pyran-1,3-dione] | -51±8 | 3.89 ± 1.12 | inactive | inactive | 7.94 | 63 | – | –
CC(C)(C)c1ccc(O)c(C(C)(C)C)c1 [2,4-Di-tert-butylphenol] | -95±5 | 3.5 ± 0.73 | – | -131±66% | 3.98 | 101 | 24 ± 16.6 | –
Cc1cc(O)c(Cl)c(C)c1Cl [2,4-Dichloro-3,5-dimethylphenol] | -104±10 | 5.88 ± 4.85 | inactive | inactive | 8.91 | 95 | – | –
Nc1cccc(N)n1 [2,6-Diaminopyridine] | -68±18 | 31.3 ± 10.3 | – | -75±28% | 35.5 | 84 | 20.9 ± 15.7 | –
N#CSCSc1nc2ccccc2s1 [2-(Thiocyanomethylthio)benzothiazole] | -85±16 | 33.1 ± 4.58 | – | -136±65% | 56.2 | 73 | 30.5 ± 26.4 | –
Nc1ccc(N)c([N+](=O)[O-])c1 [2-Nitro-1,4-phenylenediamine] | -85±13 | 7.07 ± 6.53 | – | – | 12.6 | 87 | – | –
Cc1cc(O)c(C(C)(C)C)cc1Sc1cc(C(C)(C)C)c(O)cc1C [4,4'-Thiobis(6-tert-butyl-m-cresol)] | -104±19 | 1.86 ± 1.18 | – | -78±17% | 3.16 | 115 | 24.8 ± 11.8 | –
Oc1ccc(Sc2ccc(O)cc2)cc1 [4,4'-Thiodiphenol] | -100±12 | 21.1 ± 2.7 | – | -49±9% | 25.1 | 115 | 24.7 ± 9.79 | –
Cc1cc(O)c(C(C)(C)C)cc1C(C)(C)C [4,6-Di-tert-butyl-m-cresol] | – | 2.25 ± 1.49 | – | -103±14% | 2.51 | 96 | 45.9 ± 14.7 | –
Oc1cc(O)c(Cl)cc1Cl [4,6-Dichloro-1,3-benzenediol] | -100±10 | 9.55 ± 2.74 | – | -37±3% | 15.8 | 108 | 35.7 ± 5.79 | –
c1ccc(CCCc2ccncc2)cc1 [4-(3-Phenylpropyl)pyridine] | -63±19 | 16.6 ± 6.74 | – | -82±23% | 14.1 | 46 | 13 ± 6.83 | –
Oc1ccc(OCc2ccccc2)cc1 [4-(Benzyloxyl)phenol] | -87±9 | 18.5 ± 1.51 | – | -46±35% | 7.4 | 93 | 9.04 ± 8.1 | –
Nc1cc(Cl)c(O)c(Cl)c1 [4-Amino-2,6-dichlorophenol] | -97±9 | 17.2 ± 13.4 | – | -57±8% | 15.8 | 120 | 29.6 ± 27.8 | –

SMILES | MMP assays efficacy (%) qHTS-HepG2 (HepG2 cells [1]) [%] | IC50 (HepG2 cells [1]; [3]) [µM] | MMP assays IC50 (µM) Rat Hepatocytes (rat primary hepatocytes) | MMP assays efficacy (%) Rat Hepatocytes (rat primary hepatocytes) | IC50 (HepG2 cells [2]) [µM] | Emax (HepG2 cells [2]) [%] | IC50 (rat primary hepatocytes) [µM] | IC50 (HepG2 cells [1]; [4]) [µM]
Cc1cc(O)cc(C)c1Cl [4-Chloro-3,5-dimethylphenol] | -122±6 | 21 | inactive | inactive | 25.1 | 106 | – | –
Nc1cc([N+](=O)[O-])ccc1C(=O)O [4-Nitroanthranilic acid] | -62±14 | 38.6 ± 17.2 | inactive | inactive | 17.8 | 51 | – | –
CC(C)(C)c1ccc(OC(=O)c2ccccc2O)cc1 [4-tert-Butylphenyl salicylate] | -78±23 | 28.4 ± 3.64 | inactive | inactive | 35.5 | 90 | – | –
Cc1ccc2c(Cl)cc(Cl)c(O)c2n1 [5,7-Dichloro-8-hydroxy-2-methylquinoline] | -120±20 | 11 ± 2 | inactive | inactive | 1.38 | 60 | – | –
CNc1ncnc2nc[nH]c12 [(N-6)-Methyladenine] | -65±7 | 5.98 ± 5.84 | inactive | inactive | 6.31 | 56 | – | –
O=C1c2cccc(O)c2C(=O)c2c(O)cc(CO)cc21 [Aloe-emodin] | -78±8 | 1.79 ± 1.54 | – | -48±19% | 7.08 | 90 | 8.43 ± 5.96 | –
CCC(C)(C)c1ccc(CC(C)CN2C[C@@H](C)O[C@@H](C)C2)cc1 (stereo partly drawn) [Amorolfine] | -63±11 | 21.6 ± 3.47 | inactive | inactive | 17.3 | 82 | – | –
CCc1oc2ccccc2c1C(=O)c1cc(I)c(O)c(I)c1 [Benziodarone] | -106±2 | 2.98 ± 0.63 | – | -95±10% | 4.35 | 97 | 1.76 ± 0.68 | –
CCC(=O)OCC(=O)[C@@]1(OC(=O)CC)[C@@H](C)C[C@H]2[C@@H]3CCC4=CC(=O)C=C[C@]4(C)[C@@]3(F)[C@@H](O)C[C@@]21C [Betamethasone dipropionate] | -118±9 | 25.6 ± 1.67 | inactive | inactive | 19.4 | 63 | – | –
Oc1ccc(C(c2ccc(O)cc2)(C(F)(F)F)C(F)(F)F)cc1 [Bisphenol AF] | -114±10 | 5.44 ± 1.42 | – | – | 5.01 | 102 | 37.3 ± 6.7 | –
CC(C)(c1ccc(O)cc1)c1ccc(O)cc1 [Bisphenol A] | -122±14 | 14 ± 6.29 | – | -59±20% | 15.8 | 111 | 37.6 ± 3.06 | –
Cc1ccc2c(Br)cc(Br)c(O)c2n1 [Broquinaldol] | -114±44 | 26.6 ± 4 | – | -87±93% | 12.6 | 114 | 38.6 ± 34.6 | –
C=C1CC[C@H](O)C/C1=C/C=C1\CCC[C@]2(C)[C@@H]([C@H](C)CCCC(C)(C)O)CC[C@@H]12 [Calcifediol] | -109±10 | 5.82 ± 0.47 | – | -66±31% | 12.3 | 115 | 14.2 ± 9.57 | –
C=C1/C(=C\C=C2/CCC[C@]3(C)[C@@H]([C@H](C)/C=C/[C@@H](O)C4CC4)CC[C@@H]23)C[C@@H](O)C[C@@H]1O [Calcipotriene] | -63±12 | 26 ± 3.89 | – | -63±23% | 21.8 | 124 | 17.3 | –
CC(O)(c1ccc(Cl)cc1)c1ccc(Cl)cc1 [Chlorfenethol] | -110±19 | 26.3 ± 7.53 | – | -90±2% | 12.6 | 100 | 18.9 ± 5.35 | –
Cc1cc(O)c2c(O)c3c(O)cccc3cc2c1 [Chrysarobin] | -105±7 | 22.8 ± 3.93 | – | -52±8% | 30.8 | 90 | 19.3 ± 8.27 | –
O=C1CN(/N=C/c2ccc([N+](=O)[O-])o2)C(=O)N1 [Nitrofurantoin] | -70±6 | – | – | – | – | 87 | – | 26.3 ± 6.35
Cc1cc(/C=C/c2ccc3cc(N(C)C)ccc3[n+]2C)c(C)n1-c1ccccc1 [Pyrvinium pamoate] | -108±33 | – | – | – | 0.17 | 91 | – | 2.02 ± 1.2
